Reference: patent publication US20240209028A1, “CNP COMPOUNDS” (priority 2022, published 2024)
Starred links: 1 amine or outer side, 2 acyl side, 3 side chain; linkers in the order of their positions; H or OH if unused. Positions of bridges follow the written chain, without caps; N, C: chain ends. Residues, ends and D or L forms follow the SMILES beside them. *: point of attachment. C18 diacid = O=C(O)CCCCCCCCCCCCCCCCC(=O)*; γGlu = O=C(O)[C@H](CCC(=O)[*:2])N[*:1]; AEEA = NCCOCCOCC(=O)O

Target: T1, human natriuretic peptide receptor 2 (hNPR2) (Homo sapiens, UniProt P20594)
T1 construct: expressed in transfected cells; host or cells: HEK293 (ATCC CRL-1573), clone 35, co-transfected with pGloSensor-42F
T1 sequence (P20594 23-1047): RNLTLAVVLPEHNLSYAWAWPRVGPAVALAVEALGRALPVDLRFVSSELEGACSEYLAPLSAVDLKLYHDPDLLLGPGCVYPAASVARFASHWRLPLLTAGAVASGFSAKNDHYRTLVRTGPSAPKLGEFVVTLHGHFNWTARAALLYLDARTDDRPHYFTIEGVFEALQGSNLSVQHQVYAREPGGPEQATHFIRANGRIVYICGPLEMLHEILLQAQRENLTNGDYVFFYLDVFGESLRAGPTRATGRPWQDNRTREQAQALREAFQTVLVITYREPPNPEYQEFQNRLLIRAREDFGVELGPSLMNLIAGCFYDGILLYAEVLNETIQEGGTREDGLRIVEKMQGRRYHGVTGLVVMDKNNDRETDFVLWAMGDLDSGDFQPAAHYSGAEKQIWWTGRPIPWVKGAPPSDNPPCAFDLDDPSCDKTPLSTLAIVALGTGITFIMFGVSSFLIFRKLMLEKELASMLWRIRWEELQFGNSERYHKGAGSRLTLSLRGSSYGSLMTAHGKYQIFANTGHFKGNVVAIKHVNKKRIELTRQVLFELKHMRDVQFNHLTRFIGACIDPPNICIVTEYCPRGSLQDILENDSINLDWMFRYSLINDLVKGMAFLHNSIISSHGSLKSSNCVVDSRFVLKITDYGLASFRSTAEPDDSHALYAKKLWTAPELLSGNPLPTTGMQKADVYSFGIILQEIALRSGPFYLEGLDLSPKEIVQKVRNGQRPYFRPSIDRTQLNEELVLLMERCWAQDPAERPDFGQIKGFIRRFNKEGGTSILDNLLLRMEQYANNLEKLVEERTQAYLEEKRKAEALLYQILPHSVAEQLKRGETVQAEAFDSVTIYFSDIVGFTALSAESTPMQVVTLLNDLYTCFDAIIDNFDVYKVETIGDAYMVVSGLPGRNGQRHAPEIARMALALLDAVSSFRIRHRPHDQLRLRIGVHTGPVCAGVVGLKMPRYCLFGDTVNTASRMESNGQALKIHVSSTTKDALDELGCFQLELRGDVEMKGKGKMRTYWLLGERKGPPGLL
Experiment: In vitro hNPR2 activity assay (cGMP GloSensor reporter, HEK293)
Type: cell-based
Settings: potency relative to CNP22 (0065)
In short: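 Potency is the EC50 from a four-parameter logistic fit, also expressed relative to the in-plate CNP22 control (×100), with at least two replicates. Compounds (ten concentrations, […], HSA-free diluent with 1% OVA, 0.01% Tween20) were incubated 30 min at 37 °C on HEK293 cells co-expressing hNPR2 and a GloSensor cGMP luciferase. Luminescence detected with Bright-Glo.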

Compound	hNPR2 0% HSA. [EC50% rel CNP]
CC[C@H](C)[C@@H]1NC(=O)[C@H](CCCNC(=N)N)NC(=O)[C@H](CC(=O)O)NC(=O)[C@H](CC(C)C)NC(=O)[C@@H]2CCCN2C(=O)[C@H](CC(C)C)NC(=O)CNC(=O)[C@H](Cc2ccccc2)NC(=O)[C@@H](NC(=O)CNC(=O)[C@H](CCC(N)=O)NC(=O)[C@H](CO)NC(=O)[C@H](CC(C)C)NC(=O)CNC(=O)[C@H](CCCCN)NC(=O)[C@H](CCCCN)NC(=O)[C@H](CCC(N)=O)NC(=O)[C@H](C)NC(=O)CNC(=O)[C@H](CCCCN)NC(=O)[C@H](Cc2ccc(O)cc2)NC(=O)[C@H](CCCCN)NC(=O)[C@H](CCCNC(=N)N)NC(=O)[C@H](C)NC(=O)[C@H](CCC(N)=O)NC(=O)[C@@H]2CCCN2C(=O)[C@H](Cc2c[nH]cn2)NC(=O)[C@H](CCC(=O)O)NC(=O)[C@H](CCC(N)=O)NC(=O)COCCOCCNC(=O)COCCOCCNC(=O)COCCOCCNC(=O)COCCOCCNC(=O)CC[C@H](NC(=O)CC[C@H](NC(=O)CC[C@H](NC(=O)CC[C@H](NC(=O)CC[C@H](NC(=O)CC[C@H](NC(=O)CCCCCCCCCCCCCCCCC(=O)O)C(=O)O)C(=O)O)C(=O)O)C(=O)O)C(=O)O)C(=O)O)CSSC[C@@H](C(=O)O)NC(=O)CNC(=O)[C@H](CC(C)C)NC(=O)CNC(=O)[C@H](CO)NC(=O)[C@H](CC(C)C)NC(=O)[C@H](CO)NC(=O)CNC1=O [compound 1404] ({C18 diacid-γGlu-γGlu-γGlu-γGlu-γGlu-γGlu-AEEA-AEEA-AEEA-AEEA}-QEHPQARKYKGAQKKGLSQGCFGLPLDRIGSLSGLGC-OH; disulfide 21-37)	81.3%
CC[C@H](C)[C@@H]1NC(=O)[C@H](CCCNC(=N)N)NC(=O)[C@H](CC(=O)O)NC(=O)[C@H](CC(C)C)NC(=O)[C@@H]2CCCN2C(=O)[C@H](CC(C)C)NC(=O)CNC(=O)[C@H](Cc2ccccc2)NC(=O)[C@@H](NC(=O)CNC(=O)[C@H](CCC(N)=O)NC(=O)[C@H](CO)NC(=O)[C@H](CC(C)C)NC(=O)CNC(=O)[C@H](CCCCN)NC(=O)[C@H](CCCCN)NC(=O)[C@H](CCC(N)=O)NC(=O)[C@H](C)NC(=O)CNC(=O)[C@@H]2CCCN2C(=O)[C@H](C)NC(=O)[C@H](CCC(N)=O)NC(=O)CNC(=O)COCCOCCNC(=O)COCCOCCNC(=O)CC[C@H](NC(=O)CCCCCCCCCCCCCCCCC(=O)O)C(=O)O)CSSC[C@@H](C(=O)O)NC(=O)CNC(=O)[C@H](CC(C)C)NC(=O)CNC(=O)[C@H](CO)NC(=O)[C@H](CC(C)C)NC(=O)[C@H](CO)NC(=O)CNC1=O [compound 1484] ({C18 diacid-γGlu-AEEA-AEEA}-GQAPGAQKKGLSQGCFGLPLDRIGSLSGLGC-OH; disulfide 15-31; C-terminus assumed)	27.9%
CC[C@H](C)[C@@H]1NC(=O)[C@H](CCCNC(=N)N)NC(=O)[C@H](CC(=O)O)NC(=O)[C@H](CC(C)C)NC(=O)[C@@H]2CCCN2C(=O)[C@H](CC(C)C)NC(=O)CNC(=O)[C@H](Cc2ccccc2)NC(=O)[C@@H](NC(=O)CNC(=O)[C@H](CCCCN)NC(=O)[C@H](CO)NC(=O)[C@H](CC(C)C)NC(=O)CNC(=O)[C@H](CCCCN)NC(=O)[C@H](CCCCN)NC(=O)[C@H](CCC(N)=O)NC(=O)[C@H](C)NC(=O)CNC(=O)[C@H](CCCCN)NC(=O)[C@H](Cc2ccc(O)cc2)NC(=O)[C@H](CCCCN)NC(=O)[C@H](CCCNC(=N)N)NC(=O)[C@H](C)NC(=O)COCCOCCNC(=O)COCCOCCNC(=O)CC[C@H](NC(=O)CC[C@H](NC(=O)CC[C@H](NC(=O)CC[C@H](NC(=O)CC[C@H](NC(=O)CCCCCCCCCCCCCCCCC(=O)O)C(=O)O)C(=O)O)C(=O)O)C(=O)O)C(=O)O)CSSC[C@@H](C(=O)O)NC(=O)CNC(=O)[C@H](CC(C)C)NC(=O)CNC(=O)[C@H](CO)NC(=O)[C@H](CC(C)C)NC(=O)[C@H](CO)NC(=O)CNC1=O [compound 1470] ({C18 diacid-γGlu-γGlu-γGlu-γGlu-γGlu-AEEA-AEEA}-ARKYKGAQKKGLSKGCFGLPLDRIGSLSGLGC-OH; disulfide 16-32)	23.9%
CC[C@H](C)[C@@H]1NC(=O)[C@H](CCCNC(=N)N)NC(=O)[C@H](CC(=O)O)NC(=O)[C@H](CC(C)C)NC(=O)[C@@H]2CCCN2C(=O)[C@H](CC(C)C)NC(=O)CNC(=O)[C@H](Cc2ccccc2)NC(=O)[C@@H](NC(=O)CNC(=O)[C@H](CCC(N)=O)NC(=O)[C@H](CO)NC(=O)[C@H](CC(C)C)NC(=O)CNC(=O)[C@H](CCCCN)NC(=O)[C@H](CCCCN)NC(=O)[C@H](CCC(N)=O)NC(=O)[C@H](C)NC(=O)CNC(=O)[C@H](CCCCN)NC(=O)[C@H](Cc2ccc(O)cc2)NC(=O)[C@H](CCCCN)NC(=O)[C@H](Cc2c[nH]cn2)NC(=O)[C@H](C)NC(=O)[C@H](CCC(N)=O)NC(=O)[C@@H]2CCCN2C(=O)[C@H](Cc2c[nH]cn2)NC(=O)[C@H](CCC(=O)O)NC(=O)[C@H](CCC(N)=O)NC(=O)COCCOCCNC(=O)COCCOCCNC(=O)CC[C@H](NC(=O)CC[C@H](NC(=O)CC[C@H](NC(=O)CCCCCCCCCCCCCCCCC(=O)O)C(=O)O)C(=O)O)C(=O)O)CSSC[C@@H](C(=O)O)NC(=O)CNC(=O)[C@H](CC(C)C)NC(=O)CNC(=O)[C@H](CO)NC(=O)[C@H](CC(C)C)NC(=O)[C@H](CO)NC(=O)CNC1=O [compound 1382] ({C18 diacid-γGlu-γGlu-γGlu-AEEA-AEEA}-QEHPQAHKYKGAQKKGLSQGCFGLPLDRIGSLSGLGC-OH; disulfide 21-37)	43.8%
CC[C@H](C)[C@@H]1NC(=O)[C@H](CCCNC(=N)N)NC(=O)[C@H](CC(=O)O)NC(=O)[C@H](CC(C)C)NC(=O)[C@@H]2CCCN2C(=O)[C@H](CC(C)C)NC(=O)CNC(=O)[C@H](Cc2ccccc2)NC(=O)[C@@H](NC(=O)CNC(=O)[C@H](CO)NC(=O)[C@H](CO)NC(=O)[C@H](CC(C)C)NC(=O)CNC(=O)[C@H](CCCCN)NC(=O)[C@H](CCCCN)NC(=O)[C@H](CCC(N)=O)NC(=O)[C@H](C)NC(=O)CNC(=O)[C@H](CCCCN)NC(=O)[C@H](Cc2ccc(O)cc2)NC(=O)[C@H](CCCCN)NC(=O)[C@H](CCCNC(=N)N)NC(=O)[C@H](C)NC(=O)[C@H](CCC(N)=O)NC(=O)[C@@H]2CCCN2C(=O)[C@H](Cc2c[nH]cn2)NC(=O)[C@H](CCC(=O)O)NC(=O)[C@H](CCC(N)=O)NC(=O)COCCOCCNC(=O)COCCOCCNC(=O)CC[C@H](NC(=O)CC[C@H](NC(=O)CC[C@H](NC(=O)CC[C@H](NC(=O)CCCCCCCCCCCCCCCCC(=O)O)C(=O)O)C(=O)O)C(=O)O)C(=O)O)CSSC[C@@H](C(=O)O)NC(=O)CNC(=O)[C@H](CC(C)C)NC(=O)CNC(=O)[C@H](CO)NC(=O)[C@H](CC(C)C)NC(=O)[C@H](CO)NC(=O)CNC1=O [compound 1473] ({C18 diacid-γGlu-γGlu-γGlu-γGlu-AEEA-AEEA}-QEHPQARKYKGAQKKGLSSGCFGLPLDRIGSLSGLGC-OH; disulfide 21-37; C-terminus assumed)	107.7%
CC[C@H](C)[C@@H]1NC(=O)[C@H](CCCNC(=N)N)NC(=O)[C@H](CC(=O)O)NC(=O)[C@H](CC(C)C)NC(=O)[C@@H]2CCCN2C(=O)[C@H](CC(C)C)NC(=O)CNC(=O)[C@H](Cc2ccccc2)NC(=O)[C@@H](NC(=O)CNC(=O)[C@H](CCC(N)=O)NC(=O)[C@H](CO)NC(=O)CNC(=O)CNC(=O)[C@H](CCCCN)NC(=O)[C@H](CCCCN)NC(=O)[C@H](CCC(N)=O)NC(=O)[C@H](C)NC(=O)CNC(=O)[C@H](Cc2c[nH]cn2)NC(=O)[C@H](Cc2ccc(O)cc2)NC(=O)COCCOCCNC(=O)COCCOCCNC(=O)COCCOCCNC(=O)COCCOCCNC(=O)CC[C@H](NC(=O)CC[C@H](NC(=O)CCCCCCCCCCCCCCCCC(=O)O)C(=O)O)C(=O)O)CSSC[C@@H](C(=O)O)NC(=O)CNC(=O)[C@H](CC(C)C)NC(=O)CNC(=O)[C@H](CO)NC(=O)[C@H](CC(C)C)NC(=O)[C@H](CO)NC(=O)CNC1=O [compound 1434] ({C18 diacid-γGlu-γGlu-AEEA-AEEA-AEEA-AEEA}-YHGAQKKGGSQGCFGLPLDRIGSLSGLGC-OH; disulfide 13-29)	29.0%
